The values that follow come from article PMC9837035 (Nature Communications, 2023).

Where “and” joins values, the source holds several entries; their conditions need not be identical. Equal values may be shown once. Read-outs that look alike come from different tables or passages of the source.

One data set concerns the target T1, NSD3 (Homo sapiens, UniProt Q9BZ95).
T1 construct: purchased Reaction Biology
T1 sequence (Q9BZ95 1-1437): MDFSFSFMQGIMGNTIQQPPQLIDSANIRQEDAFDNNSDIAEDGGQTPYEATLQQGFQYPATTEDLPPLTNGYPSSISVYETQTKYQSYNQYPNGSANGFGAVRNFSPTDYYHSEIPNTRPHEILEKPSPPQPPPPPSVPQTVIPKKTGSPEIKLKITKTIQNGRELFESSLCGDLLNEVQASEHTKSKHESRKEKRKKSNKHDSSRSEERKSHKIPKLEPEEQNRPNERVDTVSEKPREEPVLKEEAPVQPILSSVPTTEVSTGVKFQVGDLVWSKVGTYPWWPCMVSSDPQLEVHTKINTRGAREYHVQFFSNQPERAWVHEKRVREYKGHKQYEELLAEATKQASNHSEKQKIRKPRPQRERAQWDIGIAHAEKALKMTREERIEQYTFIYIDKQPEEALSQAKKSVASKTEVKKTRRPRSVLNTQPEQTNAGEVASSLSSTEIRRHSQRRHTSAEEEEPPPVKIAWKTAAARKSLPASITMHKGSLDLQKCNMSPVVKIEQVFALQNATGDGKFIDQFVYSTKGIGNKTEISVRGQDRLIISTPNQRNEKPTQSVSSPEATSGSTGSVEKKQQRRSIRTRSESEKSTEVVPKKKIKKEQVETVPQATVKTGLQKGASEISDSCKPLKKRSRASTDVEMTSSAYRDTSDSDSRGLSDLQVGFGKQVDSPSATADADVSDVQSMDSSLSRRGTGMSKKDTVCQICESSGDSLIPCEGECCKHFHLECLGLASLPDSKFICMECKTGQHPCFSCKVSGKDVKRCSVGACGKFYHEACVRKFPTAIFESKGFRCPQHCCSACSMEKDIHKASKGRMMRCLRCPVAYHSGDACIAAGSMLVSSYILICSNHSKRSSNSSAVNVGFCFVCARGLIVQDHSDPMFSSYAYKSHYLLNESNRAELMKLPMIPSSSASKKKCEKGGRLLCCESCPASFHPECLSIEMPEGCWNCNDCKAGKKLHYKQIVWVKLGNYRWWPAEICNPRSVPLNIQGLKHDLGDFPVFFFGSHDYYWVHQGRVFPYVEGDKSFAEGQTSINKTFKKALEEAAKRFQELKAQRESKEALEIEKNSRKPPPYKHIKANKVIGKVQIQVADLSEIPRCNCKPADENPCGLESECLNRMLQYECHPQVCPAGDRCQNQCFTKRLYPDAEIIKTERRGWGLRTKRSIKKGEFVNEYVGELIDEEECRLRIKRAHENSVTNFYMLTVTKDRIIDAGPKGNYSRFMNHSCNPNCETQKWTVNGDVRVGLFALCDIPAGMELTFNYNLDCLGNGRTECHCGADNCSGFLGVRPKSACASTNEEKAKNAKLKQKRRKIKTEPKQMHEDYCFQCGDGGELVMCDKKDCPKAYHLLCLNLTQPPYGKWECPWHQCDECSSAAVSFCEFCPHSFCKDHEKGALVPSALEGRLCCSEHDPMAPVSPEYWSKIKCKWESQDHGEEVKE
As to the kind of experiment: Radioisotope-based methyltransferase assay (selectivity). The class given is biochemical. The conditions noted are these: read-out: IC50.

Data set [1] is described as follows: Liver microsomal stability assay, rat. The class given is in vitro ADME. The note with it: for Metabolic stability, % remaining of RK-701: Rat. The protocol: [Human/Rat] Liver microsome analyses (human, rat) were performed in triplicate by the Sumika Chemical Analysis Service (SCAS) according to the standard protocols. […] [Dog/Monkey] Liver microsome analyses (dog, monkey) were performed in duplicate by RIKEN according to the same protocols as SCAS.

Another data set has as its target PRMT8 (Homo sapiens, UniProt Q9NR22). As to the kind of experiment: biochemical.
The next data set deals with PRMT7 (Homo sapiens, UniProt Q9NVM4). Put plainly: Radioisotope-based methyltransferase assay (selectivity).
PRMT7, sequence (Q9NVM4 whole entry): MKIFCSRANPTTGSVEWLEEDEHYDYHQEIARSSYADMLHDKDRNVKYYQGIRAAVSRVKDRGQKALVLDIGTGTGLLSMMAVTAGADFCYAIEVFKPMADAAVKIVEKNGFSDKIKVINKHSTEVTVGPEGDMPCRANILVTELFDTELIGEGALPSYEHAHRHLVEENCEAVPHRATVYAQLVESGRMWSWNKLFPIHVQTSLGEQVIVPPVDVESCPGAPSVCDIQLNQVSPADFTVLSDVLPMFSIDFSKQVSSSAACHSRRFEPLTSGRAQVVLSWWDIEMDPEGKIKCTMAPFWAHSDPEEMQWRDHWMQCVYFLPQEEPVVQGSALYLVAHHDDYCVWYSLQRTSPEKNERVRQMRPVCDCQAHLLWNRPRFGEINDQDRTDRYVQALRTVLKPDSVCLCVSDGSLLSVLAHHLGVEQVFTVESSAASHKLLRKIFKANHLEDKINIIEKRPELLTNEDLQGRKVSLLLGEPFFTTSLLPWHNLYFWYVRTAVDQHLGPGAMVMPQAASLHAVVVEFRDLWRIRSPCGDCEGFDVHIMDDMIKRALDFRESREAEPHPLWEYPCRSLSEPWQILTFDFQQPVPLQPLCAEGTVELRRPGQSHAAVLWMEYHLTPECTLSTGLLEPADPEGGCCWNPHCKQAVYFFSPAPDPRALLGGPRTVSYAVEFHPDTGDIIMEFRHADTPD

PRMT8, sequence (Q9NR22 whole entry): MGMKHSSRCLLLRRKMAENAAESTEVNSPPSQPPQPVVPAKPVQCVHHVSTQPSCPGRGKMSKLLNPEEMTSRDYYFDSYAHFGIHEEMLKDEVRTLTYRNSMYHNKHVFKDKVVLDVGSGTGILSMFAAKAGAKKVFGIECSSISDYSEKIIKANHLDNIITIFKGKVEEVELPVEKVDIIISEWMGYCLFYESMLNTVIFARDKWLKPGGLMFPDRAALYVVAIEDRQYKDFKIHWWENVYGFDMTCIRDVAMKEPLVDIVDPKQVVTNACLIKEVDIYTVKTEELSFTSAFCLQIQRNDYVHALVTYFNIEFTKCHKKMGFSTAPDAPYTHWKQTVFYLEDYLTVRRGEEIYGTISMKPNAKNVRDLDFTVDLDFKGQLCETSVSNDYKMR

In the case of `Cc1c(C(=O)NC(CCC2CC2)C(=O)Nc2ccc(C#N)cc2)[nH]c2c1C(=O)CC(C)(C)C2` (centres unmarked) [RK-701], the IC50 is over 100 µM on NSD3 (NSD3, 1 μM SAM); over 100 µM on NSD3 (NSD3, RK-701 in duplicate); over 100 µM at PRMT8; over 100 µM against PRMT7. Moreover, the “Metabolic stability, % remaining of RK-701” value was 89% and 81.8% in data set [1] (Time 5, replicate values); 86.2% and 80.2% in data set [1] (Time 10, replicate values); 63% and 58.9% in data set [1] (Time 20, replicate values); 53.3% and 55.8% in data set [1] (Time 30, replicate values); 36.1% and 33.5% in data set [1] (Time 60, replicate values). The same compound showed a share remaining at 5 min, 1 µM in data set [1] (rat, liver microsomes, Metabolic stability, % remaining of RK-701, Rat, Time 5, replicate values) of 89.1%. In data set [1] (rat, liver microsomes, Metabolic stability, % remaining of RK-701, Rat, Time 10, replicate values), the amount remaining at 10 min, 1 µM was determined as 83.1%. The share remaining at 20 min, 1 µM in data set [1] (rat, liver microsomes, Metabolic stability, % remaining of RK-701, Rat, Time 20, replicate values) came to 61.7%. This compound gave a fraction remaining at 60 min, 1 µM in data set [1] (rat, liver microsomes, Metabolic stability, % remaining of RK-701, Rat, Time 60, replicate values) of 35.6%. The microsomal CLint at 1 μM in data set [1] (rat, liver microsomes, read-out: Metabolic stability in liver microsomes CLint) was found to be 33 µL/min/mg.

What is called IC50 is the concentration that inhibits the measured activity by half. In general, fraction remaining refers to the share of the starting amount still present when the sample was taken. Low values mean a greater loss, high ones greater stability.
